Test system: HPAE cells
Assay: Transendothelial electrical resistance (TER) measurement after thrombin
Format: cell-based, Human
Conditions: pretreated with 1 uM Go6976 for 30 min, 50 nM thrombin
Source text: FIG. 7. Effects of C1-S96A mutant on MLC phosphorylation, actin stress fiber formation, and loss of endothelial barrier function in response to thrombin. A-B, MLC phosphorylation in response to thrombin in cells transfected with C1 or C1-S96A-GDI-1 mutant. Cells were stimulated with thrombin for indicated time and lysates were Western blotted with anti-phospho-MLC (top) or anti-GFP Abs to determine MLC phosphorylation. […] C, Actin stress fiber formation in response to thrombin in cells transducing GFP-tagged C1 or GFP-tagged C1-S96A mutant. Cells were stimulated with thrombin for 5 min and fixed followed by staining with Alexa-labeled phallodin to determine actin stress fiber formation by confocal imaging. […] TER values are calculated as change in resistance over the value at time zero (n=7). […] After 30 hrs cells were pretreated with 1 uM Go6976 to inhibit PKCα for 30 min and changes in transendothelial electrical resistance (TER) after addition of 50 nM thrombin were determined. TER values are calculated as change in resistance over the value at time zero (n=8). […]
Transendothelial resistance measurement: The time course of endothelial cell retraction in real time, a measure of increased endothelial permeability, was measured according to the procedure described previously (16, 23).

## Cn1c2ccccc2c2c3c(c4c5ccccc5n(CCC#N)c4c21)CNC3=O [G66976]
HPAE cells transducing C1-GDI-1 mutant
  thrombin-induced decrease in TER: significantly reduced
HPAE cells transducing S91A (S96A) GDI-1 mutant
  thrombin-induced decrease in TER: not seen

Reference: patent US20080160552A1, “Methods and Compounds for Treating Inflammation” (priority 2006, published 2008)
